Measured values published in patent US8546389B2 (priority 2010, dated 2013).
Like-named read-outs stand apart in the source and are kept apart here.

Experiments:
[1] = tested on: subgenomic genotype 2a replicon cell line; assay: HCV replicon assay, genotype 2a; type: cell-based, HCV genotype 2a; settings: Hepatitis C virus
Method: (§1) A genotype 1b (Con 1) subgenomic replicon cell line based on Blight et al., Science 2000 290: 1972-1974, modified to express a Renilla luciferase reporter gene was used to assess antiviral activity of test compounds. Cell cultures were maintained in a sub-confluent state in DMEM with glutamine, 10% heat-inactivated foetal bovine serum (FBS) and G418 (Geneticin®).
(§2) For assay, cells were seeded at a density of 7000 cells/well into 96 well tissue culture trays in culture media lacking G418. Compounds were tested in a three fold dilution series, for example starting from 50 uM. After 72 hours incubation at 37° C. and 5% CO2, Renilla luciferase activity was quantified via the Promega Renilla Luciferase or Renilla-Glo™ Luciferase Assay Systems (Promega corporation. The same method was employed for replicon assays using subgenomic genotype 1a and 2a replicon cell lines with a seeding cell density of 5000 cells/well for the 2a cell lines.
(§3) The compound concentration that reduced luciferase activity by 50% (EC50) was calculated using non-linear regression.

1b (BK) NS5bΔ21 = 1b (BK) NS5bΔ21 (Hepatitis C virus genotype 1b (isolate BK) (HCV), UniProt P26663); assay: HCV polymerase inhibition assay, genotype 1b; type: biochemical, HCV genotype 1b (BK); settings: 1b (BK) NS5bΔ21, 33P-GTP incorporation; read-out: 1b polymerase IC50 (range class)
Sequence of 1b (BK) NS5bΔ21 (P26663 2420-2989): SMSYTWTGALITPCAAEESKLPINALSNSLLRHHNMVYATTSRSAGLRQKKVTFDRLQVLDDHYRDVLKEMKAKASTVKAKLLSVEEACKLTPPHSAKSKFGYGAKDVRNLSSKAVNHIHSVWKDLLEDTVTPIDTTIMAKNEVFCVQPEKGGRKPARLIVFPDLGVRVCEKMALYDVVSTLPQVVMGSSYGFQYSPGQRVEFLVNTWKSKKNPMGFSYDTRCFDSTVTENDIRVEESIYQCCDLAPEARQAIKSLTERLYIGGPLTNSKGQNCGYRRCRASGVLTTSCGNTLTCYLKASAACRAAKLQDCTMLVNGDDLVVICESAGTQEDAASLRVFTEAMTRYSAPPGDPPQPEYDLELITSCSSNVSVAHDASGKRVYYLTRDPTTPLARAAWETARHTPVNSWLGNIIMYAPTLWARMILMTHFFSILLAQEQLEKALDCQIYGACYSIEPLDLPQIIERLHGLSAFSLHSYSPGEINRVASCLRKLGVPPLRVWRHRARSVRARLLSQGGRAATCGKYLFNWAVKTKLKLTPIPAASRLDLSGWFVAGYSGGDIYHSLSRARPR
Outline: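 NS5bΔ21 (50 nM) in Tris-HCl pH 7.5 with Mg2+/Mn2+, DTT, BSA, 0.5% DMSO, poly(rC) template, GTP at Km and ^33P-GTP; 3-fold compound dilutions. GTP-started reactions stopped with EDTA after 1 h; incorporation read by DEAE filter scintillation counting. IC50 by non-linear regression; 3a enzyme run the same way.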

[2] = tested on: subgenomic genotype 1a replicon cell line; assay: HCV replicon assay, genotype 1a; type: cell-based, HCV genotype 1a; settings: Hepatitis C virus
Method: as §1, §2, §3

[3] = tested on: genotype 1b (Con 1) subgenomic replicon cell line; assay: HCV replicon assay, genotype 1b (Renilla luciferase); type: cell-based, HCV genotype 1b (Con 1); settings: Hepatitis C virus, genotype 1b replicon
Outline: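 Subgenomic replicon cells expressing Renilla luciferase (1b Con1; 1a and 2a lines by the same method) seeded at 7000 cells/well (5000 for 2a) without G418, exposed to 3-fold compound dilutions for 72 h at 37 °C. Luciferase activity measured; EC50 by non-linear regression.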

[4] = 72 hours, luciferase, read-out: genotype 1b EC50 (range class)

Compound | EC50 [1] [nM] | IC50 (1b (BK) NS5bΔ21) [nM] | EC50 [2] [nM] | EC50 [3, 4] [nM] | EC50 ([3]; read-out: Replicon 1b EC50) [nM]
CNC(=O)c1c2cc(C3CC3)c(N(CCCNC(=O)c3ncoc3C)S(C)(=O)=O)cc2nn1-c1ccc(Br)cc1 [Compound 174] | 1730 | < 990 | 60 | < 990 | 110
CNC(=O)c1c2cc(C3CC3)c(N(CCCN3C(=O)[C@H]4CCCC[C@H]4C3=O)S(C)(=O)=O)cc2nn1-c1ccc(Br)cc1 [Compound 209] |  | < 990 |  | < 990 | 
CNC(=O)c1c2cc(C3CC3)c(N(CCCNCc3ccc(OC)cc3)S(C)(=O)=O)cc2nn1-c1ccc(Br)cc1 [Compound 210] |  | 1000 to 9990 |  | 1000 to 9990 | 
CNC(=O)c1c2cc(C3CC3)c(N(CCCNCc3cccnc3)S(C)(=O)=O)cc2nn1-c1ccc(Br)cc1 [Compound 211] |  | < 990 |  | 1000 to 9990 | 
CCOC(=O)C(CCCN(c1cc2nn(-c3ccc(Br)cc3)c(C(=O)NC)c2cc1C1CC1)S(C)(=O)=O)C(=O)OCC [Compound 212] |  | < 990 |  | < 990 | 
CNC(=O)c1c2cc(C3CC3)c(N(CCCOC)S(C)(=O)=O)cc2nn1-c1ccc(Br)cc1 [Compound 213] |  | < 990 |  | < 990 | 
CNC(=O)c1c2cc(C3CC3)c(N(CCCO)S(C)(=O)=O)cc2nn1-c1ccc(C)cc1 [Compound 214] |  | < 990 |  | < 990 | 
CNC(=O)c1c2cc(C3CC3)c(N(CCCNC(=O)[C@H]3CCC[C@H]3C(=O)OC)S(C)(=O)=O)cc2nn1-c1ccc(Br)cc1 [Compound 215] |  | < 990 |  | < 990 | 
CNC(=O)c1c2cc(C3CC3)c(N(CCCC(=O)NS(=O)(=O)C(F)(F)F)S(C)(=O)=O)cc2nn1-c1ccc(Cl)cc1 [Compound 217] |  | < 990 |  | 1000 to 9990 | 
CNC(=O)c1c2cc(C3CC3)c(N(CCCNC(=O)[C@H]3C[C@H]3C(=O)O)S(C)(=O)=O)cc2nn1-c1ccc(Br)cc1 [Compound 218] |  | < 990 |  | 1000 to 9990 | 
CNC(=O)c1c2cc(C3CC3)c(N(CCCNC(=O)c3ccn(C)c(=O)c3)S(C)(=O)=O)cc2nn1-c1ccc(Br)cc1 [Compound 219] |  | < 990 |  | 1000 to 9990 | 
CNC(=O)c1c2cc(C3CC3)c(N(CCCC(=O)OC(C)C)S(C)(=O)=O)cc2nn1-c1ccc(Br)cc1 [Compound 220] |  | < 990 |  | < 990 | 
CCN(C(=O)c1ccco1)c1cc2nn(-c3ccc(Br)cc3)c(C(=O)NC)c2cc1C1CC1 [Compound 221] |  | 10000 to 50000 |  | 1000 to 9990 | 
CNC(=O)c1c2cc(C3CC3)c(N(CCCO)S(C)(=O)=O)cc2nn1-c1ccc(Br)c(F)c1 [Compound 223] |  | < 990 |  | < 990 | 
CNC(=O)c1c2cc(C3CC3)c(N(CCCC(C(=O)O)C(=O)O)S(C)(=O)=O)cc2nn1-c1ccc(Br)cc1 [Compound 224] |  | < 990 |  | 1000 to 9990 | 
CCOC(=O)CCCN(CC)c1cc2nn(-c3ccc(Br)cc3)c(C(=O)NC)c2cc1C1CC1 [Compound 225] |  | 1000 to 9990 |  | < 990 | 
CNC(=O)c1c2cc(C3CC3)c(-c3c(C)noc3C)cc2nn1-c1ccc(C)cc1 [Compound 226] |  | 10000 to 50000 |  | 1000 to 9990 | 
CNC(=O)c1c2cc(C3CC3)c(N(CCCC(=O)O)S(C)(=O)=O)cc2nn1-c1ccc(C)cc1 [Compound 229] |  | < 990 |  | 10000 to 50000 | 
CCOC(=O)CCCN(c1cc2nn(-c3ccc(C)cc3)c(C(=O)NC)c2cc1C1CC1)S(C)(=O)=O [Compound 230] |  | < 990 |  | < 990 | 
CNC(=O)c1c2cc(C3CC3)c(N(CC3CC3)S(C)(=O)=O)cc2nn1-c1ccc(Br)cc1 [Compound 231] |  | < 990 |  | < 990 | 
CNC(=O)c1c2cc(C3CC3)c(N(CCOC)S(C)(=O)=O)cc2nn1-c1ccc(Br)cc1 [Compound 232] |  | 1000 to 9990 |  | < 990 | 
CNC(=O)c1c2cc(C3CC3)c(N(CCC(F)(F)F)S(C)(=O)=O)cc2nn1-c1ccc(Br)cc1 [Compound 233] |  | < 990 |  | < 990 | 

Compound | EC50 [1] [nM] | IC50 (1b (BK) NS5bΔ21) [nM] | EC50 [2] [nM] | EC50 [3, 4] [nM] | EC50 ([3]; read-out: Replicon 1b EC50) [nM]
CCN(c1cc2nn(-c3ccc(Br)c(F)c3)c(C(=O)NC)c2cc1C1CC1)S(C)(=O)=O [Compound 236] |  | < 990 |  | < 990 | 
CNC(=O)c1c2cc(C3CC3)c(N(C)S(C)(=O)=O)cc2nn1-c1ccc(Cl)cc1 [Compound 237] |  | < 990 |  | < 990 | 
CNC(=O)c1c2cc(C3CC3)c(N(CCC(CO)CO)S(C)(=O)=O)cc2nn1-c1ccc(Cl)cc1 [Compound 238] |  | < 990 |  | 1000 to 9990 | 
CCN(c1cc2nn(-c3ccc(Cl)c(F)c3)c(C(=O)NC)c2cc1C1CC1)S(C)(=O)=O [Compound 239] |  | < 990 |  | < 990 | 
CNC(=O)c1c2cc(C3CC3)c(N(CCF)S(C)(=O)=O)cc2nn1-c1ccc(Br)cc1 [Compound 241] |  | < 990 |  | < 990 | 
CNC(=O)c1c2cc(C3CC3)c(N(CCCNC(=O)C(C)C)S(C)(=O)=O)cc2nn1-c1ccc(Cl)cc1 [Compound 242] |  | < 990 |  | < 990 | 
CNC(=O)c1c2cc(C3CC3)c(N(CCCOC)S(C)(=O)=O)cc2nn1-c1ccc(Cl)cc1 [Compound 243] |  | < 990 |  | < 990 | 
CCN(c1cc2nn(-c3ccc(C)c(F)c3)c(C(=O)NC)c2cc1C1CC1)S(C)(=O)=O [Compound 244] |  | < 990 |  | < 990 | 
CNC(=O)c1c2cc(C3CC3)c(N(CCC(F)(F)F)S(C)(=O)=O)cc2nn1-c1ccc(Cl)cc1 [Compound 245] |  | < 990 |  | < 990 | 
CNC(=O)c1c2cc(C3CC3)c(N(CC3CC3)S(C)(=O)=O)cc2nn1-c1ccc(Cl)cc1 [Compound 246] |  | < 990 |  | < 990 | 
CNC(=O)c1c2cc(C3CC3)c(N(CCF)S(C)(=O)=O)cc2nn1-c1ccc(Cl)cc1 [Compound 247] |  | < 990 |  | < 990 | 
CNC(=O)c1c2cc(C3CC3)c(N(CC3CCOCC3)S(C)(=O)=O)cc2nn1-c1ccc(Cl)cc1 [Compound 249] |  | < 990 |  | < 990 | 
CNC(=O)c1c2cc(C3CC3)c(N(CCC3CCOCC3)S(C)(=O)=O)cc2nn1-c1ccc(Cl)cc1 [Compound 250] |  | < 990 |  | < 990 | 
CNC(=O)c1c2cc(C3CC3)c(N(CCCNC(=O)[C@H]3CCCC[C@H]3C(=O)O)S(C)(=O)=O)cc2nn1-c1ccc(Br)cc1 [Compound 251] |  | < 990 |  | < 990 | 
CNC(=O)c1c2cc(C3CC3)c(N(CC3CCOC3)S(C)(=O)=O)cc2nn1-c1ccc(Cl)cc1 (centres unmarked) [Compound 252] |  | < 990 |  | < 990 | 
CNC(=O)c1c2cc(C3CC3)c(N(CC(F)F)S(C)(=O)=O)cc2nn1-c1ccc(Br)cc1 [Compound 253] |  | < 990 |  | < 990 | 
CNC(=O)c1c2cc(C3CC3)c(N(CC(F)F)S(C)(=O)=O)cc2nn1-c1ccc(Cl)cc1 [Compound 254] |  | < 990 |  | < 990 | 
CCN(c1cc2nn(-c3ccc(NC)nc3)c(C(=O)NC)c2cc1C1CC1)S(C)(=O)=O [Compound 255] |  | < 990 |  | < 990 | 
CNC(=O)c1c2cc(C3CC3)c(N(CCC3CCOC3)S(C)(=O)=O)cc2nn1-c1ccc(Br)cc1 (centres unmarked) [Compound 256] |  | < 990 |  | < 990 | 
CNC(=O)c1c2cc(C3CC3)c(N(CCC3CCOC3)S(C)(=O)=O)cc2nn1-c1ccc(Cl)cc1 (centres unmarked) [Compound 257] |  | 1000 to 9990 |  | < 990 | 
CCN(c1cc2nn(-c3ccc(Br)cc3)c(C(=O)NC)c2cc1C1CC1)S(=O)(=O)C(F)(F)F [Compound 258] |  | 1000 to 9990 |  | 1000 to 9990 | 
